The values below come from patent US9221838B2, “Inhibitors of AKT activity” (ALMAC DISCOVERY LIMITED, priority 2009, dated 2015).

Assay type in all cases: biochemical
One test addresses T1, AKT1 (Homo sapiens, UniProt P31749).
T1 construct: purchased SignalChem
As to the kind of experiment: AKT Kinase Assay (IMAP fluorescent polarisation) vs AKT1. An outline of the steps:
(§1)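 Phosphorylation of FAM-Crosstide detected by IMAP binding and fluorescence polarisation (485/528 nm), with IC50 fitted from % inhibition versus vehicle. Compound was incubated 45 min with enzyme, then reacted 1 h at room temperature with ATP and peptide in Tris/MgCl2/DTT buffer. Dose response had fourteen half-log points.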

The target of another test is T2, AKT2 (Homo sapiens, UniProt P31751).
T2 construct: purchased SignalChem
T2 sequence (P31751 whole entry): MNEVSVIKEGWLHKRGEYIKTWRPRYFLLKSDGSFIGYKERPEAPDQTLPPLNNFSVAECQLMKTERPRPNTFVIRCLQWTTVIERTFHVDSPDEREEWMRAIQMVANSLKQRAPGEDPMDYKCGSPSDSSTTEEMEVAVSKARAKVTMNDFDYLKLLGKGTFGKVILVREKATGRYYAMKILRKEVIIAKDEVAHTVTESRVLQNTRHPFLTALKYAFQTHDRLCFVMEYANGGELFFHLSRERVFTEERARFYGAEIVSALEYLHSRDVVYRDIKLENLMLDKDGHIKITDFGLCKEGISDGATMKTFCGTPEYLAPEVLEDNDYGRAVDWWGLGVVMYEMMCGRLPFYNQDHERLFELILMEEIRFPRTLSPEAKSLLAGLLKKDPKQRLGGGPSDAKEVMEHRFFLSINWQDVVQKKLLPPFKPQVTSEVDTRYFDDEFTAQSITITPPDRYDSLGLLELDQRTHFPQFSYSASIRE
Description: AKT Kinase Assay (IMAP fluorescent polarisation) vs AKT2. The gist of the method: as §1

In the next test the target is T3, AKT3 (Homo sapiens, UniProt Q9Y243).
T3 construct: purchased SignalChem
T3 sequence (Q9Y243 whole entry): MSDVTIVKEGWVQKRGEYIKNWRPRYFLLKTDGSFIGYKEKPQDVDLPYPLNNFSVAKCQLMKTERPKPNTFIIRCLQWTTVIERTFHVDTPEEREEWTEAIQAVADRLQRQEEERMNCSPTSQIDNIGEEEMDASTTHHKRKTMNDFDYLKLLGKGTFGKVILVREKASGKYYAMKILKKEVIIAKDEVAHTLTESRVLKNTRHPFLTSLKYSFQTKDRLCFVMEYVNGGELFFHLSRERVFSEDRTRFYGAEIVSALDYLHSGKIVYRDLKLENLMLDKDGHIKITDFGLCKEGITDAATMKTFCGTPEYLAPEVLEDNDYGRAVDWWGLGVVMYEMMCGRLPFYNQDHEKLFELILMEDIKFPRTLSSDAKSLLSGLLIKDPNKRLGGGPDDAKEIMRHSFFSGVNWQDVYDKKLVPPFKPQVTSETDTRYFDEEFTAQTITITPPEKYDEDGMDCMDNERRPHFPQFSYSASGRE
As to the kind of experiment: AKT Kinase Assay (IMAP fluorescent polarisation) vs AKT3. The gist of the method: as §1

T1 sequence (P31749 whole entry): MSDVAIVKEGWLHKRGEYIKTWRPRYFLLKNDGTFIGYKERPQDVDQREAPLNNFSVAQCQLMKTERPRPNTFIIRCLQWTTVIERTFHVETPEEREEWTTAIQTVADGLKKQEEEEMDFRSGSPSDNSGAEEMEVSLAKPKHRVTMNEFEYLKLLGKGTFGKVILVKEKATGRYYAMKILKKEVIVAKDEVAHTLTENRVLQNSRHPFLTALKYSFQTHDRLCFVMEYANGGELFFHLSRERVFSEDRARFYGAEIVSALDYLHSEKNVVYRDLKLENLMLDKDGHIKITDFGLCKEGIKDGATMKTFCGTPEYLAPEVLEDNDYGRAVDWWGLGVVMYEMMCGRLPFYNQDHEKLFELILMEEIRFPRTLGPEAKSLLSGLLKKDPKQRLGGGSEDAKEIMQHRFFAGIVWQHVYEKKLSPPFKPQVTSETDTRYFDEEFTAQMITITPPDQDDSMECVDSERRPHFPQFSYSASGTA

With `NC1(c2ccc(-c3nc4c(cc3-c3ccccc3)-n3c(nnc3-c3cccnc3)CO4)cc2)CCC1` [Example 122, 1-(4-(8-phenyl-1-(pyridin-3-yl)-4H-pyrido[2,3-b][1,2,4]triazolo[4,3-d][1,4]oxazin-7-yl)phenyl)cyclobutanamine], the 50% inhibitory concentration (IC50) at AKT1 lay in the range of 0.1 to 1 µM; at AKT2, 1 to 10 µM; at AKT3 it was 1 to 10 µM.

For the molecule `NC1(c2ccc(-c3nc4c(cc3-c3ccccc3)-n3c(nnc3-c3ccncc3)CO4)cc2)CCC1` [Example 123, 1-(4-(8-phenyl-1-(pyridin-4-yl)-4H-pyrido[2,3-b][1,2,4]triazolo[4,3-d][1,4]oxazin-7-yl)phenyl)cyclobutanamine], the figures for the 50% inhibitory concentration (IC50) on AKT1, at AKT2 and on AKT3 were no more than 0.1 µM, 1 to 10 µM and 1 to 10 µM, respectively.

As for `CN1C(=O)COc2nc(-c3ccc(C4(N)CCC4)cc3)c(-c3cccnc3)cc21` [Example 124, 6-(4-(1-aminocyclobutyl)phenyl)-1-methyl-7-(pyridin-3-0)-1H-pyrido[2,3-b][1,4]oxazin-2(3H)-one], the 50% inhibitory concentration (IC50) on AKT1, on AKT2 and at AKT3 was 1 to 10 µM throughout.

Consider `CN1C(=O)COc2nc(-c3ccc(C4(N)CCC4)cc3)c(-c3ccsc3)cc21` [Example 125, 6-(4-(1-aminocyclobutyl)phenyl)-1-methyl-7-(thiophen-3-yl)-1H-pyrido[2,3-b][1,4]oxazin-2(3H)-one], for which the half-inhibitory concentration (IC50) lay within 0.1 to 1 µM at AKT1, 1 to 10 µM on AKT2 and 1 to 10 µM at AKT3.

As for `CN1C(=O)COc2nc(-c3ccc(C4(N)CCC4)cc3)c(-c3cccs3)cc21` [Example 126, 6-(4-(1-aminocyclobutyl)phenyl)-1-methyl-7-(thiophen-2-yl)-1H-pyrido[2,3-b][1,4]oxazin-2(3H)-one], the IC50 lay within 0.1 to 1 µM on AKT1, 0.1 to 1 µM at AKT2 and 1 to 10 µM at AKT3.

Consider `NC1(c2ccc(-c3nc4c(cc3-c3ccccc3)C(=O)COC4)cc2)CCC1` [Example 127, 2-(4-(1-aminocyclobutyl)phenyl)-3-phenyl-6,8-dihydro-5H-pyrano[3,4-b]pyridin-5-one], for which the half-inhibitory concentration (IC50) on AKT1 was 1 to 10 µM; on AKT2, greater than 10 µM; at AKT3, greater than 10 µM.

Consider `C[C@]1(O)C[C@@](N)(c2ccc(-c3nc4c(cc3-c3ccccc3)-n3c(nnc3C(F)F)CO4)cc2)C1` [Example 128, (1r,3r)-3-amino-3-(4-(1-(difluoromethyl)-8-phenyl-4H-pyrido[2,3-b][1,2,4]triazolo[4,3-d][1,4]oxazin-7-0)phenyl)-1-methylcyclobutanol], for which the IC50 on AKT1 was no more than 0.1 µM; at AKT2 it was 0.1 to 1 µM; at AKT3 it was 0.1 to 1 µM.

Take `NC1(c2ccc(-c3nc4c(cc3-c3ccccc3)-n3c(nnc3-c3ccccc3)CO4)cc2)CCC1` [Example 129, 1-(4-(1,8-diphenyl-4H-pyrido[2,3-b][1,2,4]triazolo[4,3-d][1,4]oxazin-7-yl)phenyl)cyclobutanamine]: the half-maximal inhibitory concentration (IC50) at AKT1 lay within 0.1 to 1 µM; on AKT2, 1 to 10 µM; on AKT3, 1 to 10 µM.

Take `NC1(c2ccc(-c3nc4c(cc3-c3ccccc3)-n3c(nnc3-c3ccccn3)CO4)cc2)CCC1` [Example 130, 1-(4-(8-phenyl-1-(pyridin-2-yl)-4H-pyrido[2,3-b][1,2,4]triazolo[4,3-d][1,4]oxazin-7-yl)phenyl)cyclobutanamine]: the values for the IC50 on AKT1, at AKT2 and on AKT3 were 0.1 to 1 µM, greater than 10 µM and greater than 10 µM, respectively.

For `CN1C(=O)COc2nc(-c3ccc(CN)cc3)c(-c3ccccc3)cc21` [Example 131, 6-(4-(aminomethyl)phenyl)-1-methyl-7-phenyl-1H-pyrido[2,3-b][1,4]oxazin-2(3H)-one], the IC50 at AKT1 fell in the range of 1 to 10 µM; at AKT2 it was 0.1 to 1 µM; on AKT3, 1 to 10 µM.

As to `CN1C(=O)COc2nc(-c3ccc(C4(N)CCC4)cc3)c(-c3ccc(F)cc3)cc21` [Example 132, 6-(4-(1-aminocyclobutyl)phenyl)-7-(4-fluorophenyl)-1-methyl-1H-pyrido[2,3-b][1,4]oxazin-2(3H)-one], the IC50 was 0.1 to 1 µM at AKT1, 1 to 10 µM on AKT2 and greater than 10 µM on AKT3.

Take `CN1C(=O)COc2nc(-c3ccc(C4(N)CCC4)cc3)c(CC3CC3)cc21` [Example 133, 6-(4-(1-aminocyclobutyl)phenyl)-7-(cyclopropylmethyl)-1-methyl-1H-pyrido[2,3-b][1,4]oxazin-2(3H)-one]: the IC50 at AKT1 is 1 to 10 µM; on AKT2 it was greater than 10 µM; at AKT3, greater than 10 µM.

For the molecule `CN1C(=O)COc2nc(-c3ccc([C@]4(N)C[C@@](C)(O)C4)cc3)c(-c3ccccc3)cc21` [Example 134, 6-(4((1s,3s)-1-amino-3-hydroxy-3-methylcyclobutyl)phenyl)-1-methyl-7-phenyl-1H-pyrido[2,3-b][1,4]oxazin-2(3H)-one], the values for the IC50 at AKT1, on AKT2 and at AKT3 were 0.1 to 1 µM, 1 to 10 µM and greater than 10 µM, respectively.

Regarding `N#CCN1C(=O)COc2nc(-c3ccc(CN)cc3)c(-c3ccccc3)cc21` [Example 135, 2-(6-(4-(aminomethyl)phenyl)-2-oxo-7-phenyl-2,3-dihydro-1H-pyrido[2,3-b][1,4]oxazin-1-yl)acetonitrile], the IC50 at AKT1 is 0.1 to 1 µM; on AKT2, no more than 0.1 µM; on AKT3, 1 to 10 µM.

In the case of `CCc1nnc2n1-c1cc(-c3ccccc3)c(-c3ccc([C@]4(N)C[C@@H](O)C4)cc3)nc1OC2` [Example 136, (1s,3s)-3-Amino-3-(4-(1-ethyl-8-phenyl-4H-pyrido[2,3-b][1,2,4]triazolo[4,3-d][1,4]oxazin-7-yl)phenyl)cyclobutanol], the figures for the half-maximal inhibitory concentration (IC50) on AKT1, on AKT2 and on AKT3 were 0.1 to 1 µM, 1 to 10 µM and 1 to 10 µM, respectively.

Regarding `CN1C(=O)COc2nc(-c3ccc([C@]4(N)C[C@H](O)C4)cc3)c(-c3ccccc3)cc21` [Example 137, 6-(4-((1r,3r)-1-amino-3-hydroxycyclobutyl)phenyl)-1-methyl-7-phenyl-1H-pyrido[2,3-b][1,4]oxazin-2(3H)-one], the results for the IC50 at AKT1, at AKT2 and on AKT3 were no more than 0.1 µM, 0.1 to 1 µM and 1 to 10 µM, respectively.

On to `CCc1nnc2n1-c1cc(-c3ccccc3)c(-c3ccc([C@]4(N)C[C@](C)(O)C4)cc3)nc1OC2` [Example 138, (1r,3r)-3-amino-3-(4-(1-ethyl-8-phenyl-4H-pyrido[2,3-b][1,2,4]triazolo[4,3-d][1,4]oxazin-7-yl)phenyl)-1-methylcyclobutanol], for which the figures for the 50% inhibitory concentration (IC50) on AKT1, on AKT2 and at AKT3 were no more than 0.1 µM, 0.1 to 1 µM and 1 to 10 µM, respectively.

In the case of `CCN1C(=O)COc2nc(-c3ccc([C@]4(N)C[C@@H](O)C4)cc3)c(-c3ccccc3)cc21` [Example 139, 6-(4-((1s,3s)-1-amino-3-hydroxycyclobutyl)phenyl)-1-ethyl-7-phenyl-1H-pyrido[2,3-b][1,4]oxazin-2(3H)-one], the values for the half-maximal inhibitory concentration (IC50) on AKT1, at AKT2 and at AKT3 were 0.1 to 1 µM, 0.1 to 1 µM and 1 to 10 µM, respectively.

`N[C@]1(c2ccc(-c3nc4c(cc3-c3ccccc3)N(CC3CC3)C(=O)CO4)cc2)C[C@H](O)C1` [Example 140, 6-(4-((1s,3s)-1-amino-3-hydroxycyclobutyl)phenyl)-1-(cyclopropylmethyl)-7-phenyl-1H-pyrido[2,3-b][1,4]oxazin-2(3H)-one]: the IC50 is 0.1 to 1 µM on AKT1, 0.1 to 1 µM at AKT2 and 1 to 10 µM at AKT3.

Consider `N[C@]1(c2ccc(-c3nc4c(cc3-c3ccccc3)-n3c(n[nH]c3=O)CO4)cc2)C[C@H](O)C1` [Example 141, 7-(4-((1s,3s)-1-amino-3-hydroxycyclobutyl)phenyl)-8-phenyl-2,4-dihydro-1H-pyrido[2,3-b][1,2,4]triazolo[4,3-d][1,4]oxazin-1-one], for which the IC50 at AKT1, at AKT2 and on AKT3 was 0.1 to 1 µM throughout.

Consider `CCc1nnc2n1-c1cc(-c3ccccc3)c(-c3ccc(CN)cc3)nc1OC2` [Example 142, (4-(1-ethyl-8-phenyl-4H-pyrido[2,3-b][1,2,4]triazolo[4,3-d][1,4]oxazin-7-yl)phenyl)methanamine], for which the IC50 at AKT1, on AKT2 and at AKT3 was 1 to 10 µM in each case.

`CCN1C(=O)COc2nc(-c3ccc([C@]4(N)C[C@](C)(O)C4)cc3)c(-c3ccccc3)cc21` [Example 143, 6-(4-((1r,3r)-1-amino-3-hydroxy-3-methylcyclobutyl)phenyl)-1-ethyl-7-phenyl-1H-pyrido[2,3-b][1,4]oxazin-2(3H)-one]: the concentration for half-maximal inhibition (IC50) is no more than 0.1 µM on AKT1, no more than 0.1 µM on AKT2 and 0.1 to 1 µM on AKT3.

`C[C@]1(O)C[C@@](N)(c2ccc(-c3nc4c(cc3-c3ccccc3)N(CC3CC3)C(=O)CO4)cc2)C1` [Example 144, 6-(4-((1r,3r)-1-amino-3-hydroxy-3-methylcyclobutyl)phenyl)-1-(cyclopropylmethyl)-7-phenyl-1H-pyrido[2,3-b][1,4]oxazin-2(3H)-one]: the IC50 at AKT1 is 0.1 to 1 µM; at AKT2, no more than 0.1 µM; on AKT3 it was 0.1 to 1 µM.

With `C[C@]1(O)C[C@@](N)(c2ccc(-c3nc4c(cc3-c3ccccc3)N(CCF)C(=O)CO4)cc2)C1` [Example 145, 6-(4-((1r,3r)-1-amino-3-hydroxy-3-methylcyclobutyl)phenyl)-1-(2-fluoroethyl)-7-phenyl-1H-pyrido[2,3-b][1,4]oxazin-2(3H)-one], the IC50 is no more than 0.1 µM on AKT1, no more than 0.1 µM on AKT2 and 0.1 to 1 µM at AKT3.

With `NCc1ccc(-c2nc3c(cc2-c2ccccc2)N(CC(F)(F)F)C(=O)CO3)cc1` [Example 146, 6-(4-(Aminomethyl)phenyl)-7-phenyl-1-(2,2,2-trifluoroethyl)-1H-pyrido[2,3-b][1,4]oxazin-2(3H)-one], the 50% inhibitory concentration (IC50) was 1 to 10 µM at AKT1, 0.1 to 1 µM on AKT2 and greater than 10 µM at AKT3.

Broadly, the IC50 is the concentration that inhibits the measured activity by half.
